In test [1] the test system is EGFR Del19/T790M/C797S (BaF3-DTC cells). Kind of test: EGFR degradation HTRF assay, BaF3-DTC cells. It counts as cell-based. As to conditions: 16h treatment; for DTC Dmax (%): maximum percentage of degradation; for DC50: read-out: DTC DC50. As for the experimental part: BaF3 WT(wild type), BaF3-LTC(L858R/T790M/C797S) and BaF3-DTC(Del19/T790M/C797S) cells are treated with compounds diluted in 0.2% DMSO cell culture medium and incubate for 16h, 37° C., 5% CO2, H1975-#36, H1975-#28, H1975-#23 and HCC827 cells are treated with compounds diluted in 0.2% DMSO cell culture medium on day 2, incubate for 16h, 37° C., 5% CO2.the final concentriation of compounds in all assay is start with 10 uM, 5-fold dilution, total 8 doses were included.
After 16h treatment, add HTRF lysis buffer to each well; seal the plate and incubate 1 hour at room temperature on a plate shaker; Once the cells are lysed, 16 μL of cell lysate are transferred to a PE 384-well HTRF detection plate; 4 μL of pre-mixed HTRF antibodies are added to each well; Cover the plate with a plate sealer, spin 1000 rpm for 1 min, Incubate overnight at room temperature; Read on BMG PheraStar with HTRF protocol (337 nm-665 nm-620 nm).
The inhibition (degradation) percentage of the compound was calculated by the following equation: Inhibition percentage of Compound=100-100×(Signal-low control)/(High control-low control), wherein signal=each test compound group
High control=Cell group with added DMSO and without compound, indicating microplate readings without EGFR degradation;
Dmax is the maximum percentage of inhibition (degradation).
The IC50 (DC50) value of a compound can be obtained by fitting the following equation
Y=Bottom+(TOP−Bottom)/(1+((IC50/X)^hillslope))
Wherein, X and Y are known values, and IC50, Hillslope, Top and Bottom are the parameters obtained by fitting with software. Y is the inhibition percentage (calculated from the equation), X is the concentration of the compound; IC50 is the concentration of the compound when the 50% inhibition is reached. The smaller the IC50 value is, the stronger the inhibitory ability of the compound is. Vice versa, the higher the IC50 value is, the weaker the inhibitory ability of the compound is; Hillslope represents the slope of the fitted curve, generally around 1*; Bottom represents the minimum value of the curve obtained by data fitting, which is generally 0%±20%; Top represents the maximum value of the curve obtained by data fitting, which is generally 100%±20%. The experimental data were fitted by calculating and analyzing with Dotmatics data analysis software.

Test [2] addresses T1, EGFR L858R/T790M/C797S (BaF3-LTC cells) (Homo sapiens, UniProt P00533, C797S/L858R/T790M).
T1 construct: expressed in transfected cells; host or cells: BaF3
Kind of test: EGFR degradation HTRF assay, BaF3-LTC cells. It counts as cell-based. As to conditions: BaF3-LTC, 16h treatment; for Dmax: maximum percentage of degradation, read-out: LTC Dmax (%); for DC50: read-out: LTC DC50. The method in brief: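 Cells treated 16 h at 37 °C, 5% CO2 in medium with 0.2% DMSO; top final concentration 10 uM, 5-fold dilution, 8 doses. Lysates read by HTRF (665/620 nm); degradation % versus DMSO high control, DC50 from four-parameter fit, Dmax as maximal degradation.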
A general note: TR-FRET usually uses a lanthanide donor and a delayed reading to cut background.

T1 sequence (P00533 25-1210 T790M/C797S/L858R): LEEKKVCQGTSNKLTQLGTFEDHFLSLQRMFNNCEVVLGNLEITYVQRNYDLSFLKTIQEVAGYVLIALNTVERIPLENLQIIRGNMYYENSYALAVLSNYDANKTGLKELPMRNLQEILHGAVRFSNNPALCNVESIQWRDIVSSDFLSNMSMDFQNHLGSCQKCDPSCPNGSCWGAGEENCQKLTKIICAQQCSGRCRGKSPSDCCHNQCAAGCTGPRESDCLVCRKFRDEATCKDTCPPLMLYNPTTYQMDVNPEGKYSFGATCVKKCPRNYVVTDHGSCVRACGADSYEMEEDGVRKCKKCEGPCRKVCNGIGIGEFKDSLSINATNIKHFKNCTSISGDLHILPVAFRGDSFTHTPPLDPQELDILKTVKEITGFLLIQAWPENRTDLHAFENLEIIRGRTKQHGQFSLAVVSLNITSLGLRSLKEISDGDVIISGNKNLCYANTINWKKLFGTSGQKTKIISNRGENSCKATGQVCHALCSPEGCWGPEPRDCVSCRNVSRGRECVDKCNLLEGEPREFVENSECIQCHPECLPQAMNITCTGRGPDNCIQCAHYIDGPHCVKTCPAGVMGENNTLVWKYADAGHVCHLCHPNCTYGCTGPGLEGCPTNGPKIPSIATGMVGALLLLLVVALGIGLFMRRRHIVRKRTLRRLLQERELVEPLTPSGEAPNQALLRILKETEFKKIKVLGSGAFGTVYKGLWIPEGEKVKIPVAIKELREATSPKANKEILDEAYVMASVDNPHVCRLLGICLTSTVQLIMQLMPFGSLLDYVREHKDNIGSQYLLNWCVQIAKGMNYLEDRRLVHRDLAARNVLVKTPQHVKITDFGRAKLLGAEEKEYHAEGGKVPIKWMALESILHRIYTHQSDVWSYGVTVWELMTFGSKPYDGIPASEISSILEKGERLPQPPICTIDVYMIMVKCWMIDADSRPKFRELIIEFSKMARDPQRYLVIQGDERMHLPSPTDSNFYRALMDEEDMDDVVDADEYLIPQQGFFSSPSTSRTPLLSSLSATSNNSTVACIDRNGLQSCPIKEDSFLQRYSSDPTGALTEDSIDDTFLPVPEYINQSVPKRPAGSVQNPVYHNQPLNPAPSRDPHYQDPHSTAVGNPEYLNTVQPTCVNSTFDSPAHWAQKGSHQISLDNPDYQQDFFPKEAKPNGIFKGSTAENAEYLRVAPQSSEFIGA

`CCc1cc(Nc2ncc(Br)c(Nc3ccc4nccnc4c3P(C)(C)=O)n2)c(OC)cc1N1CCC(N2CCN(CCc3cc(F)c(C4CCC(=O)NC4=O)cc3Cl)CC2)CC1` (stereo not drawn) [Example 165, 3-(4-(2-(4-(1-(4-((5-bromo-4-((5-(dimethylphosphoryl)quinoxalin-6-yl)amino)pyrimidin-2-yl)amino)-2-ethyl-5-methoxyphenyl)piperidin-4-yl)piperazin-1-yl)ethyl)-5-chloro-2-fluorophenyl)piperidine-2,6-dione]: in test [1], the “DTC Dmax (%)” value amounted to 82.21% and the DC50 – broadly, the concentration at which degradation of the target reaches its halfway point – stood at 18.1 nM. Further, in test [2], the Dmax (as a rule, the greatest extent of degradation seen) came to 84.2% and the DC50 amounted to 44 nM.
For `CCc1cc(Nc2ncc(Br)c(Nc3ccc4nccnc4c3P(C)(C)=O)n2)c(OC)cc1N1CCC(N2CCN(CCc3cc(Cl)c(C4CCC(=O)NC4=O)cc3F)CC2)CC1` (stereo not drawn) [Example 166, 3-(4-(2-(4-(1-(4-((5-bromo-4-((5-(dimethylphosphoryl)quinoxalin-6-yl)amino)pyrimidin-2-yl)amino)-2-ethyl-5-methoxyphenyl)piperidin-4-yl)piperazin-1-yl)ethyl)-2-chloro-5-fluorophenyl)piperidine-2,6-dione], in that order: 85.99%, 13.5 nM, 80.1% and 49.3 nM.
For the compound `CCc1cc(Nc2ncc(Br)c(Nc3ccc4nccnc4c3P(C)(C)=O)n2)c(OC)cc1N1CCN(C2CCN(C3CCC(c4ccc(C5CCC(=O)NC5=O)cc4)C3)CC2)CC1` (stereo not drawn) [Example 178, 3-(4-(3-(4-(4-(4-((5-bromo-4-((5-(dimethylphosphoryl)quinoxalin-6-yl)amino)pyrimidin-2-yl)amino)-2-ethyl-5-methoxyphenyl)piperazin-1-yl)piperidin-1-yl)cyclopentyl)phenyl)piperidine-2,6-dione], in test [1], the “DTC Dmax (%)” value is given as 81.18% and the 50% degradation concentration (DC50) worked out at 44.4 nM. Besides, in test [2], the Dmax was 83.5% and the DC50 is 71.8 nM.
With `CCc1cc(Nc2ncc(Br)c(Nc3ccc4nccnc4c3P(C)(C)=O)n2)c(OC)cc1N1CCC(N2CCN(C(=O)C3CN(c4ccc(C5CCC(=O)NC5=O)cc4)C3)CC2)CC1` (stereo not drawn) [Example 199, 3-(4-(3-(4-(1-(4-((5-bromo-4-((5-(dimethylphosphoryl)quinoxalin-6-yl)amino)pyrimidin-2-yl)amino)-2-ethyl-5-methoxyphenyl)piperidin-4-yl)piperazine-1-carbonyl)azetidin-1-yl)phenyl)piperidine-2,6-dione], in test [1], the “DTC Dmax (%)” value is 84.49% and the DC50 was found to be 9.03 nM. For the same compound, in test [2], the Dmax was found to be 86.6% and the half-maximal degradation concentration (DC50) came out at 22.1 nM.
As for `CCc1cc(Nc2ncc(Br)c(Nc3ccc4cc(C)ncc4c3P(C)(C)=O)n2)c(OC)cc1N1CCC(N2CCN(CCc3cc(F)c(C4CCC(=O)NC4=O)c(F)c3)CC2)CC1` (stereo not drawn) [Example 200, 3-(4-(2-(4-(1-(4-((5-bromo-4-((8-(dimethylphosphoryl)-3-methylisoquinolin-7-yl)amino)pyrimidin-2-yl)amino)-2-ethyl-5-methoxyphenyl)piperidin-4-yl)piperazin-1-yl)ethyl)-2,6-difluorophenyl)piperidine-2,6-dione], in test [1], the “DTC Dmax (%)” value amounted to 93.3% and the DC50 came out at 2.8 nM. In addition, in test [2], the Dmax was 88.6% and the DC50 was found to be 11.1 nM.
For `CCc1cc(Nc2ncc(Br)c(Nc3ccc4ncccc4c3P(C)(C)=O)n2)c(OC)cc1N1CCC(N2CCN(CCc3cc(F)c(C4CCC(=O)NC4=O)c(F)c3)CC2)CC1` (stereo not drawn) [Example 201, 3-(4-(2-(4-(1-(4-((5-bromo-4-((5-(dimethylphosphoryl)quinolin-6-yl)amino)pyrimidin-2-yl)amino)-2-ethyl-5-methoxyphenyl)piperidin-4-yl)piperazin-1-yl)ethyl)-2,6-difluorophenyl)piperidine-2,6-dione], in that order: 95.68%, 1.72 nM, 92% and 6.8 nM.
In the case of `CCc1cc(Nc2ncc(Br)c(Nc3ccc4ncccc4c3P(C)(C)=O)n2)c(OC)cc1N1CCC(N2CCN(CCC3CCN(c4cc(F)c(C5CCC(=O)NC5=O)c(F)c4)CC3)CC2)CC1` (stereo not drawn) [Example 202, 3-(4-(4-(2-(4-(1-(4-((5-bromo-4-((5-(dimethylphosphoryl)quinolin-6-yl)amino)pyrimidin-2-yl)amino)-2-ethyl-5-methoxyphenyl)piperidin-4-yl)piperazin-1-yl)ethyl)piperidin-1-yl)-2,6-difluorophenyl)piperidine-2,6-dione], in test [1], the “DTC Dmax (%)” value was 93.39% and the DC50 amounted to 7.6 nM. In test [2], the greatest degradation seen (Dmax) turned out to be 87.8% and the 50% degradation concentration (DC50) turned out to be 18.5 nM.
For `COc1cc(N2CCN(C3CN(CCC4CCN(c5cc(F)c(C6CCC(=O)NC6=O)c(F)c5)CC4)C3)CC2)c(C)cc1Nc1ncc(Br)c(Nc2ccc3nccnc3c2P(C)(C)=O)n1` (stereo not drawn) [Example 204, 3-(4-(4-(2-(3-(4-(4-((5-bromo-4-((5-(dimethylphosphoryl)quinoxalin-6-yl)amino)pyrimidin-2-yl)amino)-5-methoxy-2-methylphenyl)piperazin-1-yl)azetidin-1-yl)ethyl)piperidin-1-yl)-2,6-difluorophenyl)piperidine-2,6-dione], in that order: 91.45%, 15.6 nM, 85.7% and 31 nM.
Turning to `CCc1cc(Nc2ncc(Br)c(Nc3ccc4nccnc4c3P(C)(C)=O)n2)c(OC)cc1N1CCC(N2CCN(CCCc3cc(F)c(C4CCC(=O)NC4=O)c(F)c3)CC2)CC1` (stereo not drawn) [Example 205, 3-(4-(3-(4-(1-(4-((5-bromo-4-((5-(dimethylphosphoryl)quinoxalin-6-yl)amino)pyrimidin-2-yl)amino)-2-ethyl-5-methoxyphenyl)piperidin-4-yl)piperazin-1-yl)propyl)-2,6-difluorophenyl)piperidine-2,6-dione], in test [1], the “DTC Dmax (%)” value was found to be 90.39% and the 50% degradation concentration (DC50) worked out at 6.63 nM. In test [2], the Dmax stood at 87.7% and the 50% degradation concentration (DC50) is 32.5 nM.
The like results for `CCc1cc(Nc2ncc(Br)c(Nc3ccc4scnc4c3P(C)(C)=O)n2)c(OC)cc1N1CCC(N2CCN(CCc3cc(F)c(C4CCC(=O)NC4=O)c(F)c3)CC2)CC1` (stereo not drawn) [Example 206, 3-(4-(2-(4-(1-(4-((5-bromo-4-((4-(dimethylphosphoryl)benzo[d]thiazol-5-yl)amino)pyrimidin-2-yl)amino)-2-ethyl-5-methoxyphenyl)piperidin-4-yl)piperazin-1-yl)ethyl)-2,6-difluorophenyl)piperidine-2,6-dione] were, in that order, 94.22%, 9.26 nM, 92.1% and 20.9 nM.
For `CCc1cc(Nc2ncc(Br)c(Nc3ccc4nc(C)ccc4c3P(C)(C)=O)n2)c(OC)cc1N1CCC(N2CCN(CC3CN(c4ccc(C5CCC(=O)NC5=O)c(C#N)c4)C3)CC2)CC1` (stereo not drawn) [Example 207, 5-(3-((4-(1-(4-((5-bromo-4-((5-(dimethylphosphoryl)-2-methylquinolin-6-yl)amino)pyrimidin-2-yl)amino)-2-ethyl-5-methoxyphenyl)piperidin-4-yl)piperazin-1-yl)methyl)azetidin-1-yl)-2-(2,6-dioxopiperidin-3-yl)benzonitrile], in that order: 90.41%, 6.6 nM, 91.3% and 13.2 nM.
For `CCc1cc(Nc2ncc(Br)c(Nc3ccc4nc(C)ccc4c3P(C)(C)=O)n2)c(OC)cc1N1CCC(N2CCN(C(=O)[C@@H]3CCN(c4cc(F)c(C5CCC(=O)NC5=O)c(F)c4)C3)CC2)CC1` (stereo partly drawn) [Example 208, 3-(4-((R)-3-(4-(1-(4-((5-bromo-4-((5-(dimethylphosphoryl)-2-methylquinolin-6-yl)amino)pyrimidin-2-yl)amino)-2-ethyl-5-methoxyphenyl)piperidin-4-yl)piperazine-1-carbonyl)pyrrolidin-1-yl)-2,6-difluorophenyl)piperidine-2,6-dione], in that order: 97.62%, 1.47 nM, 93.9% and 4.13 nM.

(Values after patent US20230265116A1, “DEGRADATION OF (EGFR) BY CONJUGATION OF EGFR INHIBITORS WITH E3 LIGASE LIGAND AND METHODS OF USE” (BEIGENE, LTD., priority 2020, published 2023).)
